From patent US11613531B2, “Inhibitors of RHO associated coiled-coil containing protein kinase” (Kadmon Corporation, LLC, priority 2017, dated 2023)
pIC50: −log10 of the molar value. Where two headings read alike, the source gives them in different places.

Legend:
[1] = system: ppMlc (T18/S19) levels in A7R5 cells; assay: A7R5 in-cell ELISA (pMLC); assay type: cell-based, Rat; settings: Rattus norvegicus, A7R5, A7R5 cells; for inhibition at 1 µM: 1 μM compound
Summary of the method: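 Cellular IC50 came from a nonlinear regression fit of ppMlc (T18/S19) signal, read by colorimetric in-cell ELISA on fixed cells. Rat A7R5 aortic smooth muscle cells had been exposed for 90 min to compounds in 9-point 2-fold serial dilution, 24 h after seeding.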

[2] = system: human ACTA2 gene promoter luciferase reporter in NIH3T3 cells; assay: NIH3T3 Acta2-promoter driven-luciferase assay; assay type: cell-based; settings: NIH3T3, 24 h, read-out: NIH3T3 Acta2-luc, IC50
Description: NIH3T3 Cells Acta2-Promoter Driven-Luciferase Assay.
A NIH3T3 cell line stably expressing a luciferase reporter driven by the human ACTA2 gene promoter (−1000-1 bp) was established (NIH3T3-Acta2-luciferase). The cells were plated to confluence and treated with the test compounds plus TGFβ1 for 24 hr. Cells were then lysed and luciferase activity was measured using the LightSwitch luciferase kit from Active Motif.
In vitro activities for the compounds were measured with Z′-lyte kinase kit (ThermoFisher Scientific). The percent inhibition rate was calculated by normalizing the kinase activity value obtained with 1 μM compound treatment against DMSO control value and then applied to the formula, [1-(compound/DMSO)]×100%. IC50s were calculated using the nonlinear regression curve fit function of the GraphPad Prism software with kinase activities data measured with 9 points 2-fold serial dilution of compounds treatment. In cell pMLC IC50s were calculated with data obtained from A7R5 cell experiments. A7R5 cells were treated with 9 points 2-fold serial dilution of compounds and ppMlc (T18/S19) levels were determined to calculate cellular IC50 values of the compounds using the nonlinear regression curve fit function of the GraphPad Prism software. NIH3T3 cells stably expressing ACTA2-promoter-driven-luciferase were applied to measure ROCK compounds functional IC50s in cells. Cells were plated in 96 well plates to confluence and treated with 9 points serial dilution of compounds in combination with TGFβ1 for 24 hr. Luciferase activities were measured and compound's IC50s were calculated using the nonlinear regression curve fit function of the GraphPad Prism software.
ROCK inhibitors can be effectively rank ordered by ACTA2-promoter-driven-luciferase reporter cell assay. NIH3T3 cells stably expressing ACTA2-promoter-driven-luciferase were plated in 96 well plates to confluence and treated with 9 points serial dilution of compounds in combination with TGFβ1 for 24 hr. Luciferase activities were measured and compound's IC50s were calculated. By this assay multiple compounds of the invention gave IC50s under 200 nM.

[3] = target: Recombinant ROCK2 (amino acids 1-552) (Homo sapiens (Human), UniProt O75116); assay: Z′-Lyte kinase assay, ROCK2; assay type: biochemical; settings: for inhibition at 1 µM: 1 μM compound; for inhibition at 1 µM / inhibition at 0.5 µM: read-out: ROCK2 % inh. @ [conc]; for inhibition at 0.5 µM: 0.5 μM compound
Summary of the method: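 IC50s derive from nonlinear curve fits over a 9-point, 2-fold dilution series, with single-point inhibition at 1 μM expressed relative to DMSO. Activity of truncated human ROCK1 (residues 1-535) and ROCK2 (residues 1-552) measured with the Z′-Lyte kinase format.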

[4] = read-out: pMLC % inh A7R5 @ [conc]
[5] = NIH3T3 cells, plus TGFβ1 for 24 hr
[6] = 9 points 2-fold serial dilution

Sequence of Recombinant ROCK2 (amino acids 1-552) (O75116 1-552): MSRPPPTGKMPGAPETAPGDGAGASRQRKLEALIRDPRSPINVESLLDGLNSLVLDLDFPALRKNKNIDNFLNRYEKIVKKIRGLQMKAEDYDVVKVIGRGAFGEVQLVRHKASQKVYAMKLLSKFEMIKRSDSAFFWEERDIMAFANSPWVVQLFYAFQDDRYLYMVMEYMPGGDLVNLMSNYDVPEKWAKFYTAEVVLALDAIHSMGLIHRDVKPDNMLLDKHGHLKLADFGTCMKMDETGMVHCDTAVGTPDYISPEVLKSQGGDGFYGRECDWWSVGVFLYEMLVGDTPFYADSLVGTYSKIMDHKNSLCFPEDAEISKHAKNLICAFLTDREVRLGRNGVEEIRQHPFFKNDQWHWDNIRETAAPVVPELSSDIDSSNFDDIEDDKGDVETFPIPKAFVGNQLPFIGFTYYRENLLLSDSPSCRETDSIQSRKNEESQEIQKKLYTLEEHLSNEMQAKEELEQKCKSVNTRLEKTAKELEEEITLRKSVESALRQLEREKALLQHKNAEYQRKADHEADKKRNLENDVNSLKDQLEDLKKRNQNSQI

SMILES: Fc1cnc(N2CCC3NCC3C2)nc1Nc1ccc2[nH]ncc2c1 (centres unmarked) [Example 170, N-(2-(3,7-diazabicyclo[4.2.0]octan-3-yl)-5-fluoropyrimidin-4-yl)-1H-indazol-5-amine]
- IC50 [1]: 274 nM
- inhibition at 1 µM [1, 4]: 31.5%
- pIC50 ([2]; with TGFβ1, 24 hr): 6.24
- pIC50 [3]: 7.57
- inhibition at 1 µM [3]: 99.1%

SMILES: Cc1cc(Nc2ccc3[nH]ncc3c2)nc(N2CCNCC2)n1 [Example 205, N-(6-methyl-2-(piperazin-1-yl)pyrimidin-4-yl)-1H-indazol-5-amine]
- inhibition at 10 µM ([1]; 10 μM compound, read-out: pMLC % inh A7R5 @ [conc]): 55%
- IC50 ([1]; ppMlc (T18/S19)): 415 nM
- pIC50 [2, 5]: 5.89
- pIC50 [3, 6]: 7.21

SMILES: Cc1cc(Nc2ccc3[nH]ncc3c2)nc(N2CC3CC2CN3)n1 (centres unmarked) [Example 211, N-(2-(2,5-diazabicyclo[2.2.1]heptan-2-yl)-6-methylpyrimidin-4-yl)-1H-indazol-5-amine]
- inhibition at 1 µM [1, 4]: 35.8%
- IC50 ([1]; ppMlc (T18/S19)): 66 nM
- pIC50 [2, 5]: 6.36
- inhibition at 1 µM [3]: 104%

SMILES: CC1CNCCN1c1ncc(F)c(Nc2ccc3[nH]ncc3c2)n1 (centres unmarked) [Example 216, N-(5-fluoro-2-(2-methylpiperazin-1-yl)pyrimidin-4-yl)-1H-indazol-5-amine]
- inhibition at 1 µM [1, 4]: 42.6%
- IC50 ([1]; ppMlc (T18/S19)): 517 nM
- pIC50 [2, 5]: 5.86
- pIC50 [3, 6]: 7.15

SMILES: Fc1cnc(N2C3CCC2CNC3)nc1Nc1ccc2[nH]ncc2c1 [Example 221, N-(2-(3,8-diazabicyclo[3.2.1]octan-8-yl)-5-fluoropyrimidin-4-yl)-1H-indazol-5-amine]
- inhibition at 1 µM [1, 4]: 39.6%
- IC50 ([1]; ppMlc (T18/S19)): 50 nM
- pIC50 [2, 5]: 6.61
- pIC50 [3, 6]: 8.43

SMILES: Clc1cnc(N2C3CNCC2C3)nc1Nc1ccc2[nH]ncc2c1 [Example 222, N-(2-(3,6-diazabicyclo[3.1.1]heptan-6-yl)-5-chloropyrimidin-4-yl)-1H-indazol-5-amine]
- IC50 [1]: 122 nM
- inhibition at 1 µM [1, 4]: 58.2%
- pIC50 ([2]; with TGFβ1, 24 hr): 6.28
- pIC50 [3]: 8.31
- inhibition at 1 µM [3]: 102%

SMILES: Cc1nc(N2CC3CC2CN3)nc(Nc2ccc3[nH]ncc3c2)c1F (centres unmarked) [Example 277, N-(2-(2,5-diazabicyclo[2.2.1]heptan-2-yl)-5-fluoro-6-methylpyrimidin-4-yl)-1H-indazol-5-amine]
- IC50 [1]: 45 nM
- inhibition at 1 µM [1, 4]: 63.4%
- pIC50 ([2]; with TGFβ1, 24 hr): 6.61
- pIC50 [3]: 8.43

SMILES: c1cc2[nH]ncc2cc1Nc1nc(N2C3CCC2CNC3)nc2c1COC2 [Example 278, 2-(3,8-diazabicyclo[3.2.1]octan-8-yl)-N-(1H-indazol-5-yl)-5,7-dihydrofuro[3,4-d]pyrimidin-4-amine]
- IC50 [1]: 199 nM
- inhibition at 1 µM [1, 4]: 59.9%
- pIC50 ([2]; with TGFβ1, 24 hr): 5.84
- pIC50 [3]: 8.18

SMILES: Fc1cc2[nH]ncc2cc1Nc1nc(N2C3CNCC2C3)ncc1Cl [Example 295, N-(2-(3,6-diazabicyclo[3.1.1]heptan-6-yl)-5-chloropyrimidin-4-yl)-6-fluoro-1H-indazol-5-amine]
- IC50 [1]: 646 nM
- pIC50 ([2]; with TGFβ1, 24 hr): 5.66
- pIC50 [3]: 7.35
- inhibition at 0.5 µM [3]: 98%

SMILES: Fc1cc2[nH]ncc2cc1Nc1nc(N2C3CCC2CNC3)ncc1Cl [Example 296, N-(2-(3,8-diazabicyclo[3.2.1]octan-8-yl)-5-chloropyrimidin-4-yl)-6-fluoro-1H-indazol-5-amine]
- IC50 [1]: 860 nM
- pIC50 ([2]; with TGFβ1, 24 hr): 5.51
- pIC50 [3]: 6.96
- inhibition at 0.5 µM [3]: 90%

SMILES: COc1cc2[nH]ncc2cc1Nc1nc(N2C3CNCC2C3)ncc1Cl [Example 297, N-(2-(3,6-diazabicyclo[3.1.1]heptan-6-yl)-5-chloropyrimidin-4-yl)-6-methoxy-1H-indazol-5-amine]
- IC50 [1]: 1430 nM
- pIC50 ([2]; with TGFβ1, 24 hr): 5.42
- pIC50 [3]: 7.08
- inhibition at 0.5 µM [3]: 87%

SMILES: FC(F)(F)c1cnc(N2C3CCC2CNC3)nc1Nc1ccc2[nH]ncc2c1 [Example 298, N-(2-(3,8-diazabicyclo[3.2.1]octan-8-yl)-5-(trifluoromethyl)pyrimidin-4-yl)-1H-indazol-5-amine]
- IC50 [1]: 1520 nM
- pIC50 ([2]; with TGFβ1, 24 hr): < 5.30
- pIC50 [3]: 7.12

SMILES: CN1CCc2nc(N3C4CCC3CNC4)nc(Nc3ccc4[nH]ncc4c3)c2C1 [Example 299, 2-(3,8-diazabicyclo[3.2.1]octan-8-yl)-N-(1H-indazol-5-yl)-6-methyl-5,6,7,8-tetrahydropyrido[4,3-d]pyrimidin-4-amine]
- IC50 [1]: 1200 nM
- pIC50 ([2]; with TGFβ1, 24 hr): < 5.00
- pIC50 [3]: 7.47
- inhibition at 0.5 µM [3]: 70%

SMILES: c1cc(-c2cn[nH]c2)ccc1Nc1nc(N2C3CNCC2C3)nc2c1CNC2 [Example 300, N-(4-(1H-pyrazol-4-yl)phenyl)-2-(3,6-diazabicyclo[3.1.1]heptan-6-yl)-6,7-dihydro-5H-pyrrolo[3,4-d]pyrimidin-4-amine]
- IC50 [1]: > 10000 nM
- pIC50 ([2]; with TGFβ1, 24 hr): < 5.00
- inhibition at 0.5 µM [3]: 68%

SMILES: Cc1nc(N2C3CNCC2C3)nc(Nc2ccc3[nH]ncc3c2)c1F [Example 301, N-(2-(3,6-diazabicyclo[3.1.1]heptan-6-yl)-5-fluoro-6-methylpyrimidin-4-yl)-1H-indazol-5-amine]
- IC50 [1]: 16 nM
- pIC50 ([2]; with TGFβ1, 24 hr): 6.75
- pIC50 [3]: 9.40
- inhibition at 0.5 µM [3]: 100%

SMILES: FC(F)(F)c1cnc(N2C3CNCC2C3)nc1Nc1ccc2[nH]ncc2c1 [Example 304, N-(2-(3,6-diazabicyclo[3.1.1]heptan-6-yl)-5-(trifluoromethyl)pyrimidin-4-yl)-1H-indazol-5-amine]
- IC50 [1]: 413 nM
- pIC50 ([2]; with TGFβ1, 24 hr): 6.01
- pIC50 [3]: 7.77

SMILES: COc1cc2[nH]ncc2cc1Nc1nc(N2C3CCC2CNC3)ncc1Cl [Example 305, N-(2-(3,8-diazabicyclo[3.2.1]octan-8-yl)-5-chloropyrimidin-4-yl)-6-methoxy-1H-indazol-5-amine]
- IC50 [1]: 1410 nM
- pIC50 ([2]; with TGFβ1, 24 hr): 5.42
- pIC50 [3]: 6.80
- inhibition at 0.5 µM [3]: 83%

SMILES: c1cc2[nH]ncc2cc1Nc1nc(N2C3CNCC2C3)nc2c1COCC2 [Example 307, 2-(3,6-diazabicyclo[3.1.1]heptan-6-yl)-N-(1H-indazol-5-yl)-7,8-dihydro-5H-pyrano[4,3-d]pyrimidin-4-amine]
- IC50 [1]: 977 nM
- pIC50 ([2]; with TGFβ1, 24 hr): 5.69
- pIC50 [3]: 8.59

SMILES: c1cc2[nH]ncc2cc1Nc1nc(N2C3CNCC2C3)ncc1C1CC1 [Example 308, N-(2-(3,6-diazabicyclo[3.1.1]heptan-6-yl)-5-cyclopropylpyrimidin-4-yl)-1H-indazol-5-amine]
- IC50 [1]: 377 nM
- pIC50 ([2]; with TGFβ1, 24 hr): 5.91
- pIC50 [3]: 7.82

SMILES: c1cc2[nH]ncc2cc1Nc1nc(N2C3CCC2CNC3)ncc1C1CC1 [Example 309, N-(2-(3,8-diazabicyclo[3.2.1]octan-8-yl)-5-cyclopropylpyrimidin-4-yl)-1H-indazol-5-amine]
- IC50 [1]: 917 nM
- pIC50 ([2]; with TGFβ1, 24 hr): 5.48
- pIC50 [3]: 6.93

SMILES: c1cc2[nH]ncc2cc1Nc1nc(N2C3CNCC2C3)nc2c1CNC2 [Example 310, 2-(3,6-diazabicyclo[3.1.1]heptan-6-yl)-N-(1H-indazol-5-yl)-6,7-dihydro-5H-pyrrolo[3,4-d]pyrimidin-4-amine]
- IC50 [1]: > 5000 nM
- pIC50 ([2]; with TGFβ1, 24 hr): < 5.30
- pIC50 [3]: 8.42

SMILES: Cc1c(Cl)nc(N2C3CCC2CNC3)nc1Nc1ccc2[nH]ncc2c1 [Example 315, N-(2-(3,8-diazabicyclo[3.2.1]octan-8-yl)-6-chloro-5-methylpyrimidin-4-yl)-1H-indazol-5-amine]
- IC50 [1]: 168 nM
- pIC50 ([2]; with TGFβ1, 24 hr): 5.71
- pIC50 [3]: 7.59

SMILES: Fc1cnc(N2CC3CNCC(C2)O3)nc1Nc1ccc2[nH]ncc2c1 [Example 324, N-(2-((1,5)-9-oxa-3,7-diazabicyclo[3.3.1]nonan-3-yl)-5-fluoropyrimidin-4-yl)-1H-indazol-5-amine]
- IC50 [1]: 2080 nM
- pIC50 ([2]; with TGFβ1, 24 hr): 5.86
- pIC50 [3]: 6.57
- inhibition at 0.5 µM [3]: 71%

SMILES: CCN(C)c1cc(Nc2ccc3[nH]ncc3c2)nc(N2C3CCC2CNC3)n1 [Example 332, 2-(3,8-diazabicyclo[3.2.1]octan-8-yl)-N4-ethyl-N6-(1H-indazol-5-yl)-N4-methylpyrimidine-4,6-diamine]
- IC50 [1]: 18 nM
- pIC50 ([2]; with TGFβ1, 24 hr): 7.10
- pIC50 [3]: 8.92
